Laboratory results from patent US11459334B2, “Substituted pyrrolo[2,1-f][1,2,4]triazines as KIT and/or PDGFR-α inhibitors” (SHENZHEN TARGETRX, INC., priority 2018, dated 2022).

Key:
Ba/F3 Kit D816V = Ba/F3 Kit D816V (Homo sapiens, UniProt P10721, D816V, cells depend on it); details: read-out: Cell IC50 (nM) BaF3/Kit(D816V); 72 hours, CTG
[1] = Metabolic stability evaluation, rat liver microsome experiment; format: in vitro ADME; details: SD, rat liver microsomes, pH 7.4, 1 μM compound, 0.5 mg/mL protein; for microsomal CLint at 1 μM: read-out: CL rat liver microsome experiment; for half-life at 1 μM: read-out: T½ rat liver microsome experiment
Description: (§1) Microsome experiment: human liver microsome: 0.5 mg/mL, Xenotech; rat liver microsome: 0.5 mg/mL, Xenotech; coenzyme (NADPH/NADH): 1 mM, Sigma Life Science; magnesium chloride: 5 mM, 100 mM phosphate buffer (pH 7.4).
(§2) Preparation of stock solution: a certain amount of the example compound powder and control compound powder were accurately weighed, and respectively dissolved to 5 mM with DMSO.
(§3) Preparation of phosphate buffer (100 mM, pH7.4): 150 mL of 0.5M potassium dihydrogen phosphate and 700 mL of 0.5M dipotassium hydrogen phosphate prepared beforehand were mixed, with pH of the mixture adjusted to 7.4 with 0.5M dipotassium hydrogen phosphate solution. Before use, the mixture was diluted by 5 folds with ultrapure water and magnesium chloride was added to obtain the phosphate buffer (100 mM), which contains 100 mM potassium phosphate, 3.3 mM magnesium chloride, and has pH 7.4.
(§4) NADPH regeneration system solution (containing 6.5 mM NADP, 16.5 mM G-6-P, 3 U/mL G-6-P D, 3.3 mM magnesium chloride) was prepared, and placed on wet ice before use.
(§5) Preparation of stop solution: a solution of 50 ng/mL propranolol hydrochloride and 200 ng/mL tolbutamide (internal standard) in acetonitrile. 25057.5 μL of phosphate buffer (pH 7.4) was taken into a 50 mL centrifuge tube, added with 812.5 μL of human liver microsome, and mixed well to obtain a liver microsome diluent with a protein concentration of 0.625 mg/mL. 25057.5 μL of phosphate buffer (pH 7.4) was taken into a 50 mL centrifuge tube, added with 812.5 μL of SD rat liver microsome, and mixed well to obtain a liver microsome diluent with a protein concentration of 0.625 mg/mL.
(§6) Incubation of the samples: the stock solutions of the corresponding compounds were respectively diluted to 0.25 mM with an aqueous solution containing 70% acetonitrile to obtain working solutions for later use. 398 μL of human liver microsome and rat liver microsome diluents were respectively taken and added to a 96-well incubation plate (N=2), added with 2 μL of 0.25 mM working solution respectively, and mixed well.
(§7) Determination of metabolic stability: 300 μL of pre-cooled stop solution was added to each well of a 96-well deep-well plate, and the plate was placed on ice as a stop plate. The 96-well incubation plate and the NADPH regeneration system were placed in a 37° C. water bath, shaken at 100 rpm, and pre-incubated for 5 minutes. 80 μL of incubation solution was taken out of each well of the incubation plate and added to the stop plate, mixed well, and supplemented with 20 μL of NADPH regeneration system solution to obtain the 0 min sample. Then 80 μL of NADPH regeneration system solution was added to each well of the incubation plate to initiate the reaction and start timing. The reaction concentration of the corresponding compound was 1 μM, and the protein concentration was 0.5 mg/mL. At 10, 30, and 90 minutes of reaction, 100 μL of the reaction solution was taken and added to the stop plate, and vortexed for 3 minutes to stop the reaction. The stop plate was centrifuged at 5000×g for 10 min at 4° C. 100 μL of supernatant was taken to a 96-well plate pre-added with 100 μL of distilled water, mixed well, and subjected to sample analysis by LC-MS/MS.
(§8) Data analysis: the peak areas of the corresponding compound and internal standard were detected through the LC-MS/MS system, and the ratio of the peak area of the compound to the internal standard was calculated.

[2] = Metabolic stability evaluation, human liver microsome experiment; format: in vitro ADME; details: human liver microsomes, pH 7.4, 1 μM compound, 0.5 mg/mL protein; for microsomal CLint at 1 μM: read-out: CL human liver microsome experiment; for half-life at 1 μM: read-out: T½ human liver microsome experiment
Description: as §1, §2, §3, §4, §5, §6, §7, §8

GI50 (Ba/F3 Kit D816V) [nM]	microsomal CLint at 1 μM [1] [µL/min/mg]	half-life at 1 μM [1] [min]	microsomal CLint at 1 μM [2] [µL/min/mg]	half-life at 1 μM [2] [min]	SMILES
1 to 50	24.6	56.3	15.8	87.6	Cn1cc(-c2cc3c(N4CCN(c5ncc([C@@](C)(N)c6ccc(F)cc6)cn5)CC4)ncnn3c2)cn1 [Avapritinib, (S)-1-(4-fluorophenyl)-1-(2-(4-(6-(1-methyl-1H-pyrazol-4-yl)pyrrolo[2,1-f][1,2,4]triazin-4-yl)piperazin-1-yl)pyrimidin-5-yl)ethylamine, reference compound]
	41.5	33.4	28.8	48.1	Cn1cc(-c2cc3c(N4CCN(c5ncc([C@](C)(N)c6ccc(F)cc6)cn5)CC4)ncnn3c2)cn1 [Compound A, (R)-1-(4-fluorophenyl)-1-(2-(4-(6-(1-methyl-1H-pyrazol-4-yl)pyrrolo[2,1-f][1,2,4]triazin-4-yl)piperazin-1-yl)pyrimidin-5-yl)ethan-1-amine, reference compound]
1 to 50			15.6	88.6	[2H]C([2H])([2H])n1cc(-c2cc3c(N4CCN(c5ncc([C@@](C)(N)c6ccc(F)cc6)cn5)CC4)ncnn3c2)cn1 [Compound T-1-S, (S)-1-(4-fluorophenyl)-1-(2-(4-(6-(1-(methyl-d3)-1H-pyrazol-4-yl)pyrrolo[2,1-f][1,2,4]triazin-4-yl)piperazin-1-yl)pyrimidin-5-yl)ethylamine]
1 to 50					[2H]C([2H])([2H])[C@](N)(c1ccc(F)cc1)c1cnc(N2CCN(c3ncnn4cc(-c5cnn(C)c5)cc34)CC2)nc1 [Compound T-2-S, (S)-1-(4-fluorophenyl)-1-(2-(4-(6-(1-methyl-1H-pyrazol-4-yl)pyrrolo[2,1-f][1,2,4]triazin-4-yl)piperazin-1-yl)pyrimidin-5-yl)ethan-2,2,2-d3-1-amine]
	37.2	37.3	27	51.3	[2H]C([2H])([2H])n1cc(-c2cc3c(N4CCN(c5ncc([C@](N)(c6ccc(F)cc6)C([2H])([2H])[2H])cn5)CC4)ncnn3c2)cn1 [Compound T-3-R, (R)-1-(4-fluorophenyl)-1-(2-(4-(6-(1-(methyl-d3)-1H-pyrazol-4-yl)pyrrolo[2,1-f][1,2,4]triazin-4-yl)piperazin-1-yl)pyrimidin-5-yl)ethan-2,2,2-d3-1-amine]
1 to 50	15.6	89.1	13	107	[2H]C([2H])([2H])n1cc(-c2cc3c(N4CCN(c5ncc([C@@](N)(c6ccc(F)cc6)C([2H])([2H])[2H])cn5)CC4)ncnn3c2)cn1 [Compound T-3-S, (S)-1-(4-fluorophenyl)-1-(2-(4-(6-(1-(methyl-d3)-1H-pyrazol-4-yl)pyrrolo[2,1-f][1,2,4]triazin-4-yl)piperazin-1-yl)pyrimidin-5-yl)ethan-2,2,2-d3-1-amine]
	27	51.4	26	53.3	[2H]C1([2H])N(c2ncc([C@](C)(N)c3ccc(F)cc3)cn2)C([2H])([2H])C([2H])([2H])N(c2ncnn3cc(-c4cnn(C)c4)cc23)C1([2H])[2H] [Compound T-4-R, (R)-1-(4-fluorophenyl)-1-(2-(4-(6-(1-methyl-1H-pyrazol-4-yl)pyrrolo[2,1-f][1,2,4]triazin-4-yl)piperazin-1-yl-2,2,3,3,5,5,6,6-d8)pyrimidin-5-yl)ethylamine]
1 to 50	17.1	81.1	15.3	90.5	[2H]C1([2H])N(c2ncc([C@@](C)(N)c3ccc(F)cc3)cn2)C([2H])([2H])C([2H])([2H])N(c2ncnn3cc(-c4cnn(C)c4)cc23)C1([2H])[2H] [Compound T-4-S, (S)-1-(4-fluorophenyl)-1-(2-(4-(6-(1-methyl-1H-pyrazol-4-yl)pyrrolo[2,1-f][1,2,4]triazin-4-yl)piperazin-1-yl-2,2,3,3,5,5,6,6-d8)pyrimidin-5-yl)ethylamine]
1 to 50					[2H]C([2H])([2H])n1cc(-c2cc3c(N4C([2H])([2H])C([2H])([2H])N(c5ncc([C@@](C)(N)c6ccc(F)cc6)cn5)C([2H])([2H])C4([2H])[2H])ncnn3c2)cn1 [Compound T-5-S, (S)-1-(4-fluorophenyl)-1-(2-(4-(6-(1-(methyl-d3)-1H-pyrazol-4-yl)pyrrolo[2,1-f][1,2,4]triazin-4-yl)piperazin-1-yl-2,2,3,3,5,5,6,6-d8)pyrimidin-5-yl)ethylamine]
	38.6	35.9	24.2	57.3	[2H]C1([2H])N(c2ncc([C@](N)(c3ccc(F)cc3)C([2H])([2H])[2H])cn2)C([2H])([2H])C([2H])([2H])N(c2ncnn3cc(-c4cnn(C)c4)cc23)C1([2H])[2H] [Compound T-6-R, (R)-1-(4-fluorophenyl)-1-(2-(4-(6-(1-methyl-1H-pyrazol-4-yl)pyrrolo[2,1-f][1,2,4]triazin-4-yl)piperazin-1-yl-2,2,3,3,5,5,6,6-d8)pyrimidin-5-yl)ethan-2,2,2-d3-1-amine]
1 to 50	15.5	89.4	13.1	105	[2H]C1([2H])N(c2ncc([C@@](N)(c3ccc(F)cc3)C([2H])([2H])[2H])cn2)C([2H])([2H])C([2H])([2H])N(c2ncnn3cc(-c4cnn(C)c4)cc23)C1([2H])[2H] [Compound T-6-S, (S)-1-(4-fluorophenyl)-1-(2-(4-(6-(1-methyl-1H-pyrazol-4-yl)pyrrolo[2,1-f][1,2,4]triazin-4-yl)piperazin-1-yl-2,2,3,3,5,5,6,6-d8)pyrimidin-5-yl)ethan-2,2,2-d3-1-amine]
1 to 50					[2H]C([2H])([2H])n1cc(-c2cc3c(N4C([2H])([2H])C([2H])([2H])N(c5ncc([C@@](N)(c6ccc(F)cc6)C([2H])([2H])[2H])cn5)C([2H])([2H])C4([2H])[2H])ncnn3c2)cn1 [Compound T-7-S, (S)-1-(4-fluorophenyl)-1-(2-(4-(6-(1-(methyl-d3)-1H-pyrazol-4-yl)pyrrolo[2,1-f][1,2,4]triazin-4-yl)piperazin-1-yl-2,2,3,3,5,5,6,6-d8)pyrimidin-5-yl)ethan-2,2,2-d3-1-amine]
